Reference: patent US10118916B2, “Modulators of cystic fibrosis transmembrane conductance regulator protein” (AbbVie S.à.r.l., priority 2016, dated 2018)

Target: T1, F508delCFTR (Homo sapiens, UniProt P13569, DEL508-508)
T1 construct: expressed in transfected cells; host or cells: CFBE41o- (human lung derived epithelial cell line), doxycycline-inducible
Test: Cell Surface Expression-Horse Radish Peroxidase (CSE-HRP) assay
Assay type: cell-based
Details: CFBE41o-F508delCFTR-HRP cells; for EC50: F508delCFTR cell surface expression, luminescence, 18-24 hours at 33° C., highest concentration 20 μM; for Maximum % activity: maximum at any tested concentration, normalized to on-plate positive control (3 μM)
How it was run: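 CFBE41o- cells expressing doxycycline-induced (0.5 μg/mL, 72 h at 37 °C) F508delCFTR with HRP in the fourth extracellular loop; compounds 8 points, 3-fold from 20 μM, 18-24 h at 33 °C. Surface HRP measured by luminol luminescence, normalised to DMSO and 3 μM reference corrector; EC50 from variable-slope sigmoidal fit of triplicate plates.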

T1 sequence (P13569 with tags, fused parts or gaps DEL508-508): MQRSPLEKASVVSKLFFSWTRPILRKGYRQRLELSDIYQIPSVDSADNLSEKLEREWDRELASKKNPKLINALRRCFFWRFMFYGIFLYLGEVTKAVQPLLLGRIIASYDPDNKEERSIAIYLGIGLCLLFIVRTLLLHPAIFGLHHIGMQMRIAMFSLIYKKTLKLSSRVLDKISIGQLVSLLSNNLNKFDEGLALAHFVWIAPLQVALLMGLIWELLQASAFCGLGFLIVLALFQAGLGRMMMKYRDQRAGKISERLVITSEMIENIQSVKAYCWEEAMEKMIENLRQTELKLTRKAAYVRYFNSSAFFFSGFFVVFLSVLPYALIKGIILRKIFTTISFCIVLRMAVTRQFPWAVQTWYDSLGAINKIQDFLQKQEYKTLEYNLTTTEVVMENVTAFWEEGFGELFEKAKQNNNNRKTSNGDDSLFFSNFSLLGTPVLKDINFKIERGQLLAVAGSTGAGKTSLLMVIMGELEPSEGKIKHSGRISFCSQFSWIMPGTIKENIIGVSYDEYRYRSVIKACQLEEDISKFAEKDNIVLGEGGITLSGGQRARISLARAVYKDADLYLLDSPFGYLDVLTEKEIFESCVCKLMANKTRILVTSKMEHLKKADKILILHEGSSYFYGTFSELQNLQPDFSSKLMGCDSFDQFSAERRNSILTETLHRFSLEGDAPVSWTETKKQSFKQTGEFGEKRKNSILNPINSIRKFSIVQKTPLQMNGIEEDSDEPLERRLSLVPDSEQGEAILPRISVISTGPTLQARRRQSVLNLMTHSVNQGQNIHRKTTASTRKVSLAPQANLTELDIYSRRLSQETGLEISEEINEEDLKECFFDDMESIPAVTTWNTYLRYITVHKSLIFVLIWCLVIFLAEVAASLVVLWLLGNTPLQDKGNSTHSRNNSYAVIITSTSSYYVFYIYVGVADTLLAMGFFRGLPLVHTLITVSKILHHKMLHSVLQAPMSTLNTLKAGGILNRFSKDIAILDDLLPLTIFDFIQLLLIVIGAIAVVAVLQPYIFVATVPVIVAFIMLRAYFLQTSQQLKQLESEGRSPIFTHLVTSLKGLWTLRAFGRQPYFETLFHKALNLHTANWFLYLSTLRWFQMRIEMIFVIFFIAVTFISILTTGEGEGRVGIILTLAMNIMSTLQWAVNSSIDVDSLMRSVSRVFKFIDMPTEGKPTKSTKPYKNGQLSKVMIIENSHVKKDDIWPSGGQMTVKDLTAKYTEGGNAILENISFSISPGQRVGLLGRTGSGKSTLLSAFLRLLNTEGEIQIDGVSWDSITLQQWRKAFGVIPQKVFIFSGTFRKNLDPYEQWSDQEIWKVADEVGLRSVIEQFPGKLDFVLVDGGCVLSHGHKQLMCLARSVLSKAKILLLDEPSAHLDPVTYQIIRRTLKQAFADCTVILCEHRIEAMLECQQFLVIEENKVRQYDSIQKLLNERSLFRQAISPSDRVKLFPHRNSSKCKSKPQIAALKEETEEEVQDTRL

| Compound | EC50 | Maximum % activity |
| --- | --- | --- |
| COC(=O)c1ccc([C@H]2C[C@@H](NC(=O)[C@]3(C)CCc4cc(Cl)ccc4O3)c3ccccc3O2)cc1 [Example 61, methyl 4-[(2R,4R)-4-{[(2S)-6-chloro-2-methyl-3,4-dihydro-2H-1-benzopyran-2-carbonyl]amino}-3,4-dihydro-2H-1-benzopyran-2-yl]benzoate] | 5.88 µM | 20.0% |
| C[C@@]1(C(=O)N[C@@H]2C[C@H](c3ccc(C(=O)O)cc3)Oc3ccccc32)CCc2cc(Cl)ccc2O1 [Example 62, 4-[(2R,4R)-4-{[(2S)-6-chloro-2-methyl-3,4-dihydro-2H-1-benzopyran-2-carbonyl]amino}-3,4-dihydro-2H-1-benzopyran-2-yl]benzoic acid] | 2.65 µM | 22.6% |
| COC(=O)c1cccc([C@H]2C[C@@H](NC(=O)[C@]3(C)CCc4cc(Cl)ccc4O3)c3ccccc3O2)c1 [Example 63, methyl 3-[(2R,4R)-4-{[(2S)-6-chloro-2-methyl-3,4-dihydro-2H-1-benzopyran-2-carbonyl]amino}-3,4-dihydro-2H-1-benzopyran-2-yl]benzoate] | > 20 µM | 5.1% |
| C[C@@]1(C(=O)N[C@@H]2C[C@H](c3cccc(C(=O)O)c3)Oc3ccccc32)CCc2cc(Cl)ccc2O1 [Example 64, 3-[(2R,4R)-4-{[(2S)-6-chloro-2-methyl-3,4-dihydro-2H-1-benzopyran-2-carbonyl]amino}-3,4-dihydro-2H-1-benzopyran-2-yl]benzoic acid] | > 20 µM | 18.0% |
| C[C@]1(C(=O)N[C@@H]2C[C@H](c3cccc(C(=O)O)c3)Oc3ccccc32)CCc2cc(Cl)ccc2O1 [Example 66, 3-[(2R,4R)-4-{[(2R)-6-chloro-2-methyl-3,4-dihydro-2H-1-benzopyran-2-carbonyl]amino}-3,4-dihydro-2H-1-benzopyran-2-yl]benzoic acid] | > 20 µM | 4.8% |
| COc1ccc2c(c1)O[C@@H](c1ccc(C(=O)O)cc1)C[C@H]2NC(=O)[C@@]1(C)CCc2cc(Cl)ccc2O1 [Example 67, 4-[(2R,4R)-4-{[(2R)-6-chloro-2-methyl-3,4-dihydro-2H-1-benzopyran-2-carbonyl]amino}-7-methoxy-3,4-dihydro-2H-1-benzopyran-2-yl]benzoic acid] | > 20 µM | 4.7% |
| COc1ccc2c(c1)O[C@@H](c1ccc(C(=O)O)cc1)C[C@H]2NC(=O)C1(C)CCc2cc(OC(F)(F)F)ccc21 (stereo partly drawn) [Example 68, 4-[(2R,4R)-7-methoxy-4-{[1-methyl-5-(trifluoromethoxy)-2,3-dihydro-1H-indene-1-carbonyl]amino}-3,4-dihydro-2H-1-benzopyran-2-yl]benzoic acid] | 1.31 µM | 85.0% |
| COc1ccc2c(c1)CC[C@]2(C)C(=O)N[C@@H]1C[C@H](c2ccc(C(=O)O)cc2)Oc2cc(OC)ccc21 [Example 69, 4-[(2R,4R)-7-methoxy-4-{[(1S)-5-methoxy-1-methyl-2,3-dihydro-1H-indene-1-carbonyl]amino}-3,4-dihydro-2H-1-benzopyran-2-yl]benzoic acid] | 0.1 µM | 66.1% |
| COc1ccc2c(c1)O[C@@H](c1ccc(C(=O)O)cc1)C[C@H]2NC(=O)C1(c2ccc(OC(F)(F)F)cc2)CCC1 [Example 70, 4-[(2R,4R)-7-methoxy-4-({1-[4-(trifluoromethoxy)phenyl]cyclobutane-1-carbonyl}amino)-3,4-dihydro-2H-1-benzopyran-2-yl]benzoic acid] | 2.21 µM | 28.0% |
| COc1ccc2c(c1)O[C@@H](c1ccc(C(=O)O)cc1)C[C@H]2NC(=O)C(C)(C)c1ccc2c(c1)CCO2 [Example 71, 4-{(2R,4R)-4-[2-(2,3-dihydro-1-benzofuran-5-yl)-2-methylpropanamido]-7-methoxy-3,4-dihydro-2H-1-benzopyran-2-yl}benzoic acid] | 0.12 µM | 52.0% |
| COc1ccc2c(c1)O[C@@H](c1ccc(C(=O)O)cc1)C[C@H]2NC(=O)C1(c2ccccc2)CC(F)(F)C1 [Example 72, 4-{(2R,4R)-4-[(3,3-difluoro-1-phenylcyclobutane-1-carbonyl)amino]-7-methoxy-3,4-dihydro-2H-1-benzopyran-2-yl}benzoic acid] | > 20 µM | 1.4% |
| COc1ccc2c(c1)O[C@@H](c1ccc(C(=O)O)cc1)C[C@H]2NC(=O)C(C)(C)Oc1cccc(Cl)c1 [Example 73, 4-{(2R,4R)-4-[2-(3-chlorophenoxy)-2-methylpropanamido]-7-methoxy-3,4-dihydro-2H-1-benzopyran-2-yl}benzoic acid] | 1.84 µM | 29.0% |
| COc1ccc(C2(C(=O)N[C@@H]3C[C@H](c4ccc(C(=O)O)cc4)Oc4cc(OC)ccc43)CC2)cc1 [Example 74, 4-[(2R,4R)-7-methoxy-4-{[1-(4-methoxyphenyl)cyclopropane-1-carbonyl]amino}-3,4-dihydro-2H-1-benzopyran-2-yl]benzoic acid] | 0.07 µM | 49.8% |
| COc1ccc2c(c1)O[C@@H](c1ccc(C(=O)O)cc1)C[C@H]2NC(=O)C1(c2ccccc2)CC1 [Example 75, 4-{(2R,4R)-7-methoxy-4-[(1-phenylcyclopropane-1-carbonyl)amino]-3,4-dihydro-2H-1-benzopyran-2-yl}benzoic acid] | 0.95 µM | 37.9% |
| COc1ccc2c(c1)O[C@@H](c1ccc(C(=O)O)cc1)C[C@H]2NC(=O)C1(c2ccc(Cl)cc2)CCC1 [Example 76, 4-[(2R,4R)-4-{[1-(4-chlorophenyl)cyclobutane-1-carbonyl]amino}-7-methoxy-3,4-dihydro-2H-1-benzopyran-2-yl]benzoic acid] | 2.1 µM | 52.0% |
| COc1ccc2c(c1)O[C@@H](c1ccc(C(=O)O)cc1)C[C@H]2NC(=O)C(C)(C)Oc1ccc(Cl)c(C)c1 [Example 77, 4-{(2R,4R)-4-[2-(4-chloro-3-methylphenoxy)-2-methylpropanamido]-7-methoxy-3,4-dihydro-2H-1-benzopyran-2-yl}benzoic acid] | > 20 µM | 8.0% |
| COc1ccc2c(c1)O[C@@H](c1ccc(C(=O)O)cc1)C[C@H]2NC(=O)C(C)(C)Oc1cccc(C(F)(F)F)c1 [Example 78, 4-[(2R,4R)-7-methoxy-4-{2-methyl-2-[3-(trifluoromethyl)phenoxy]propanamido}-3,4-dihydro-2H-1-benzopyran-2-yl]benzoic acid] | 2.47 µM | 32.0% |
| COc1ccc2c(c1)O[C@@H](c1ccc(C(=O)O)cc1)C[C@H]2NC(=O)C1(c2ccccc2)CCC(F)(F)C1 (stereo partly drawn) [Example 80, 4-{(2R,4R)-4-[(3,3-difluoro-1-phenylcyclopentane-1-carbonyl)amino]-7-methoxy-3,4-dihydro-2H-1-benzopyran-2-yl}benzoic acid] | > 20 µM | −0.2% |
| COc1ccc2c(c1)O[C@@H](c1ccc(C(=O)O)cc1)C[C@H]2NC(=O)C1(c2ccc(F)c(F)c2)CCC1 [Example 81, 4-[(2R,4R)-4-{[1-(3,4-difluorophenyl)cyclobutane-1-carbonyl]amino}-7-methoxy-3,4-dihydro-2H-1-benzopyran-2-yl]benzoic acid] | 1.88 µM | 32.0% |
| COc1ccc2c(c1)O[C@@H](c1ccc(C(=O)O)cc1)C[C@H]2NC(=O)C1(c2ccccc2C(F)(F)F)CCC1 [Example 82, 4-[(2R,4R)-7-methoxy-4-({1-[2-(trifluoromethyl)phenyl]cyclobutane-1-carbonyl}amino)-3,4-dihydro-2H-1-benzopyran-2-yl]benzoic acid] | 1.88 µM | 23.3% |
| COc1ccc2c(c1)O[C@@H](c1ccc(C(=O)O)cc1)C[C@H]2NC(=O)C1(c2cccc(OC(F)(F)F)c2)CCC1 [Example 83, 4-[(2R,4R)-7-methoxy-4-({1-[3-(trifluoromethoxy)phenyl]cyclobutane-1-carbonyl}amino)-3,4-dihydro-2H-1-benzopyran-2-yl]benzoic acid] | 3.17 µM | 51.0% |
| COc1ccc2c(c1)O[C@@H](c1ccc(C(=O)O)cc1)C[C@H]2NC(=O)C1(c2ccc(F)cc2)CC1 [Example 84, 4-[(2R,4R)-4-{[1-(4-fluorophenyl)cyclopropane-1-carbonyl]amino}-7-methoxy-3,4-dihydro-2H-1-benzopyran-2-yl]benzoic acid] | 0.56 µM | 56.2% |
| COc1ccc2c(c1)O[C@@H](c1ccc(C(=O)O)cc1)C[C@H]2NC(=O)C1(c2cccc(F)c2)CC1 [Example 85, 4-[(2R,4R)-4-{[1-(3-fluorophenyl)cyclopropane-1-carbonyl]amino}-7-methoxy-3,4-dihydro-2H-1-benzopyran-2-yl]benzoic acid] | 0.72 µM | 50.4% |
| COc1ccc2c(c1)O[C@@H](c1ccc(C(=O)O)cc1)C[C@H]2NC(=O)C1(c2ccc(C)c(OC)c2)CC1 [Example 86, 4-[(2R,4R)-7-methoxy-4-{[1-(3-methoxy-4-methylphenyl)cyclopropane-1-carbonyl]amino}-3,4-dihydro-2H-1-benzopyran-2-yl]benzoic acid] | 0.57 µM | 57.9% |
| COc1ccc2c(c1)O[C@@H](c1ccc(C(=O)O)cc1)C[C@H]2NC(=O)C1(c2cccc(C#N)c2)CC1 [Example 87, 4-[(2R,4R)-4-{[1-(3-cyanophenyl)cyclopropane-1-carbonyl]amino}-7-methoxy-3,4-dihydro-2H-1-benzopyran-2-yl]benzoic acid] | 1.83 µM | 46.0% |
